Experimental data: the supplement of paper PMC10307832

Legend:
Assay in all cases: relative viability (nuclei count vs DMSO), 5 days (fraction); higher = more cells survive
Sunitinib + Bortezomib = compound: CCN(CC)CCNC(=O)c1c(C)[nH]c(/C=C2\C(=O)Nc3ccc(F)cc32)c1C [Sunitinib] + CC(C)C[C@H](NC(=O)[C@H](Cc1ccccc1)NC(=O)c1cnccn1)B(O)O [Bortezomib] (partner 0.002 µM)
Procedure, shortened: (§1)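 One day after seeding in 1536-well plates, lung cancer cell lines were dosed by pin tool. Dosing was either single-drug or a fixed anchor-drug dose plus five library-drug doses (not always all listed) in √10 steps. After 5 days, nuclei were stained in one fix-and-stain step and counted on 4× images, and relative viability is the nuclei count of treated wells over that of vehicle wells, given as the median of duplicate plates.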

Sunitinib + Tozasertib = compound: CCN(CC)CCNC(=O)c1c(C)[nH]c(/C=C2\C(=O)Nc3ccc(F)cc32)c1C [Sunitinib] + Cc1cc(Nc2cc(N3CCN(C)CC3)nc(Sc3ccc(NC(=O)C4CC4)cc3)n2)n[nH]1 [Tozasertib] (partner 0.1 µM)
Procedure, shortened: as §1

Sunitinib + AZD7762 = compound: CCN(CC)CCNC(=O)c1c(C)[nH]c(/C=C2\C(=O)Nc3ccc(F)cc32)c1C [Sunitinib] + NC(=O)Nc1cc(-c2cccc(F)c2)sc1C(=O)N[C@H]1CCCNC1 [AZD7762] (partner 0.2 µM)
Procedure, shortened: as §1

Sunitinib + Decitabine = compound: CCN(CC)CCNC(=O)c1c(C)[nH]c(/C=C2\C(=O)Nc3ccc(F)cc32)c1C [Sunitinib] + Nc1ncn([C@H]2C[C@H](O)[C@@H](CO)O2)c(=O)n1 [Decitabine] (partner 2 µM)
Procedure, shortened: as §1

Row | Cell Line | relative viability (Sunitinib + Bortezomib; first compound 0.02 µM) | relative viability (Sunitinib + Bortezomib; first compound 0.06325 µM) | relative viability (Sunitinib + Bortezomib; first compound 0.2 µM) | relative viability (Sunitinib + Bortezomib; first compound 0.6325 µM) | relative viability (Sunitinib + Bortezomib; first compound 2 µM) | relative viability (Sunitinib + Tozasertib; first compound 0.02 µM) | relative viability (Sunitinib + Tozasertib; first compound 0.06325 µM) | relative viability (Sunitinib + Tozasertib; first compound 0.2 µM) | relative viability (Sunitinib + Tozasertib; first compound 0.6325 µM) | relative viability (Sunitinib + Tozasertib; first compound 2 µM) | relative viability (Sunitinib + AZD7762; first compound 0.02 µM) | relative viability (Sunitinib + AZD7762; first compound 0.06325 µM) | relative viability (Sunitinib + AZD7762; first compound 0.2 µM) | relative viability (Sunitinib + AZD7762; first compound 0.6325 µM) | relative viability (Sunitinib + AZD7762; first compound 2 µM) | relative viability (Sunitinib + Decitabine; first compound 0.02 µM) | relative viability (Sunitinib + Decitabine; first compound 0.06325 µM) | relative viability (Sunitinib + Decitabine; first compound 0.2 µM) | relative viability (Sunitinib + Decitabine; first compound 0.6325 µM) | relative viability (Sunitinib + Decitabine; first compound 2 µM)
1 | PC-14 | 0.946 | 0.858 | 0.99 | 0.878 | 0.726 | 0.53 | 0.589 | 0.583 | 0.578 | 0.523 | 0.374 | 0.442 | 0.387 | 0.319 | 0.348 | 0.2 | 0.23 | 0.239 | 0.23 | 0.252
2 | ABC-1 | 0.294 | 0.309 | 0.297 | 0.289 | 0.312 | 0.187 | 0.189 | 0.172 | 0.18 | 0.154 | 0.77 | 0.863 | 0.921 | 0.865 | 0.927 | 1.01 | 0.926 | 1.07 | 1.22 | 0.849
3 | NCI-H647 | 0.936 | 1.29 | 1.4 | 1.03 | 0.923 | 0.344 | 0.294 | 0.262 | 0.345 | 0.309 | 0.482 | 0.48 | 0.546 | 0.642 | 0.469 | 0.329 | 0.47 | 0.512 | 0.537 | 0.41
4 | NCI-H2347 | 0.853 | 1.21 | 1.1 | – | 1.11 | 0.599 | 0.481 | 0.59 | 0.607 | 0.523 | 0.709 | 0.844 | 0.813 | 0.838 | 0.871 | 0.562 | 0.617 | 0.642 | 0.66 | –
5 | EKVX | 1.07 | 1.04 | 1.18 | 1.06 | 1.09 | 0.411 | 0.39 | 0.476 | 0.459 | 0.366 | 0.755 | 0.783 | 0.735 | 0.688 | 0.716 | 0.352 | 0.384 | 0.45 | 0.382 | 0.412
6 | HCC-78 | 0.508 | 0.554 | 0.518 | 0.464 | 0.494 | 0.411 | 0.502 | 0.548 | 1.43 | 0.43 | 0.554 | 0.609 | 0.727 | 0.485 | 0.713 | 0.709 | 0.69 | 0.737 | 0.683 | 0.726
7 | NCI-H650 | 0.884 | 0.819 | 0.916 | 1.03 | 1.09 | 0.697 | 0.831 | 0.771 | 0.801 | 0.745 | 0.882 | 1.15 | 0.945 | 1.1 | 0.944 | 0.341 | 0.291 | 0.321 | 0.325 | 0.321
8 | NCI-H1915 | – | 0.994 | 1 | 1.05 | 1.02 | 0.415 | 0.418 | 0.46 | 0.453 | 0.465 | 0.678 | 0.741 | 0.601 | 0.749 | 0.75 | 0.266 | 0.278 | 0.264 | 0.26 | 0.271
9 | NCI-H596 | 0.996 | 1.16 | 0.999 | 1.08 | 1.33 | 1.01 | 0.944 | 0.985 | 0.912 | 0.705 | – | 1.12 | 1.18 | – | 0.858 | 0.895 | 0.902 | 1.16 | 1.01 | 0.962
10 | EMC-BAC-2 | 1.06 | 1.14 | 1.26 | 1.05 | 1.12 | 0.264 | 0.297 | 0.308 | 0.289 | 0.332 | 1.08 | 1.24 | 1.22 | 1.27 | 1.2 | 0.94 | 1.02 | 1.14 | – | 1.04
11 | BEN | 0.769 | 0.904 | 0.757 | 0.784 | 0.733 | 0.526 | 0.426 | 0.576 | 0.61 | 0.466 | 0.774 | 0.755 | 0.815 | 0.661 | 0.66 | 0.698 | 0.766 | 0.7 | 0.62 | 0.715
12 | NCI-H727 | 0.89 | 1.07 | 0.805 | 1.05 | 0.817 | 0.603 | 0.686 | 0.565 | 0.658 | 0.529 | 0.652 | 0.575 | 0.554 | 0.612 | 0.618 | 0.837 | 0.836 | 0.857 | 0.754 | 0.889
13 | H3255 | 0.817 | – | 0.827 | 0.995 | 0.822 | 0.763 | 0.879 | 0.785 | 0.73 | 0.654 | 0.968 | 0.888 | – | 0.871 | 0.871 | 0.567 | 0.671 | 0.607 | 0.651 | 0.529
14 | NCI-H1993 | 1.1 | 1.34 | 1.36 | – | 1.04 | 0.527 | 0.581 | 0.678 | 0.605 | 0.586 | 0.723 | 0.757 | 0.782 | 0.761 | 0.845 | 0.514 | 0.632 | 0.605 | 0.577 | 0.61
15 | NCI-H2085 | 1 | 1.05 | – | 1.16 | 1.07 | 0.863 | 0.835 | 1.02 | 0.747 | 0.605 | 0.965 | 0.976 | 1.12 | 1.07 | 1 | 0.527 | 0.55 | 0.554 | 0.595 | 0.579
16 | NCI-H838 | 0.831 | 1.04 | 0.914 | 0.859 | 0.744 | 0.301 | 0.311 | 0.314 | 0.266 | 0.246 | 0.956 | 0.907 | 1.01 | 0.993 | 0.884 | 0.447 | 0.489 | 0.476 | 0.485 | 0.448
17 | NCI-H1355 | 1.2 | 1.31 | 1.28 | 1.2 | 1.27 | 0.529 | 0.561 | 0.601 | 0.594 | 0.406 | 0.764 | 0.845 | 0.859 | 0.767 | 0.689 | 0.369 | 0.381 | 0.375 | 0.365 | 0.345
18 | HOP-62 | 0.798 | 0.83 | 0.947 | 0.871 | 1.13 | 0.351 | 0.352 | 0.383 | 0.431 | 0.397 | 0.579 | 0.675 | 0.874 | 0.688 | 0.85 | 0.22 | 0.218 | 0.252 | 0.209 | 0.239
19 | NCI-H2405 | 0.997 | 0.924 | 1.09 | 1.08 | 1 | 0.757 | 0.794 | 0.811 | 0.761 | 0.809 | 0.703 | 0.759 | 0.8 | 0.878 | 0.648 | 0.811 | 0.8 | 0.761 | 0.754 | 0.761
20 | EPLC-272H | 0.648 | 1.17 | 0.915 | 1.05 | 0.851 | 0.382 | 0.333 | 0.285 | 0.196 | 0.318 | 0.26 | 0.298 | 0.301 | 0.175 | 0.229 | 0.346 | 0.408 | 0.389 | 0.368 | 0.312
21 | NCI-H3122 | 1.01 | 1.01 | – | 0.985 | 0.985 | 0.429 | 0.475 | 0.539 | 0.433 | 0.567 | 0.933 | 1.08 | 1.01 | 0.999 | 1.01 | 0.412 | 0.439 | 0.542 | 0.364 | 0.453
22 | NCI-H1651 | – | 1.06 | 0.987 | 0.884 | 0.968 | 0.618 | 0.687 | 0.787 | 0.584 | 0.548 | 0.462 | 0.478 | 0.451 | 0.441 | 0.449 | 0.552 | 0.633 | 0.591 | 0.557 | 0.523
23 | LCLC-103H | 1.11 | 1.19 | 1.2 | 1.04 | 1.18 | 0.459 | 0.44 | 0.478 | 0.44 | 0.514 | 0.808 | 0.786 | 0.89 | 0.925 | 0.851 | 0.691 | 0.798 | 0.77 | 0.709 | 0.71
24 | HCC-366 | 0.98 | 1.05 | 1.04 | 1.15 | 0.989 | 0.12 | 0.0634 | 0.133 | 0.0819 | 0.0457 | 0.241 | 0.207 | 0.379 | 0.238 | 0.216 | 0.314 | 0.361 | 0.365 | 0.313 | 0.408
25 | NCI-H460 | 1.18 | 1.23 | 1.5 | 1.35 | 1.09 | 0.427 | 0.206 | 0.421 | 0.292 | 0.104 | 0.653 | 0.592 | 0.615 | 0.659 | 0.568 | 0.457 | 0.54 | 0.566 | 0.527 | 0.563
26 | NCI-H1975 | 0.401 | 0.448 | 0.401 | 0.438 | 0.406 | 0.705 | 0.67 | 0.717 | 0.318 | 0.186 | 0.748 | 0.679 | 0.723 | 0.705 | 0.579 | 0.369 | 0.408 | 0.405 | 0.427 | 0.391
27 | LC-2-ad | 0.883 | 1.04 | 1.05 | 1.07 | 0.932 | 0.479 | 0.484 | 0.486 | 0.502 | 0.493 | 0.796 | 0.889 | 0.983 | 0.844 | 0.873 | 0.788 | 0.777 | 0.82 | 0.728 | 0.714
